In patent US8486916B2, “Medicine, food and drink or feed containing sphingomyelin” (Megmilk Snow Brand Co., Ltd., priority 2005, dated 2013):

How the values were obtained:
[1] = test system: carrageenin-induced edema; assay: Carrageenin-induced footpad edema method; format: in vivo, Wistar rats; conditions: 100 mg/kg oral; 5 hours after λ-carrageenin injection
Protocol: The anti-inflammatory effect of sphingomyelin was tested by a carrageenin-induced footpad edema method. Specifically, a test subject shown in Table 15 was suspended in an aqueous solution containing 0.5% carboxymethylcellulose and orally administered (100 mg/kg) to male Wistar rats (body weight: 110 to 130 g, 8 individuals per group) according to the method of Winter et al. (Proceedings of the Society for Experimental Biology & Medicine, vol. 111, pp. 554, 1962). […] An aqueous solution containing 0.5% carboxymethylcellulose and no test substance was administered to rats in a control group. A rate of increase in footpad volume (V0) attributed to the injection of λ-carrageenin was measured in the control group in the same way as above. An carrageenin-induced edema inhibition rate (%) was calculated according to the calculation formula: (V0−V1)×100/V0 and used as the anti-inflammatory activity of the test substance. A higher value of this inhibition rate indicates higher anti-inflammatory activity.

[2] = test system: sialomucin content in the saliva; assay: Effect of promoting sialomucin secretion: sialomucin content in rat saliva; format: in vivo, SD rats; conditions: 7th day of experimental diet containing 1% of the substance
Protocol: Seven-week-old male SD rats (manufactured by Charles River Laboratories, Japan, Inc) were raised under conditions involving humidity of 60%, room temperature of 24° C., and light-dark (12 hour/12 hour) control. All the rats were preliminarily raised for 1 week with a standard diet and then divided into 3 groups each containing 12 individuals. These groups were allowed to freely take their respective experimental diets and raised for 1 week. Rat saliva was collected on the 7th day after the administration of experimental diets. A sialomucin content in the saliva was measured by high-performance liquid chromatography. […] In this context, a sialomucin content in the saliva was measured by the following method: 0.2 ml of a Nembutal solution was intramuscularly injected to rats fasted for 2 hours or longer. After anesthesia, a solution of pilocarpine hydrochloride serving as a saliva secretion promoter was intramuscularly injected thereto. […] A sialomucin content in the sialomucin fraction was quantified with a Sialic Acid Fluorescence Labeling Kit (Takara Bio Inc.). […] Free N-acetyl sialic acid or O-acetylated sialic acid was reacted at 55° C. for 2.5 hours by the addition of a DMB reagent as a fluorescence labeling agent and then quantified by high-performance liquid chromatography.

cholera toxin = conditions: in vivo

Molecule: CC(=O)N[C@H]1[C@H]([C@H](O)[C@H](O)CO)OC(O)(C(=O)O)C[C@@H]1O (stereo partly shown) [Sialic acid (derived from milk), Sialic acid]
- Inhibition rate [1]: 38.1%

Molecule: sialyllactose [SL, reference compound]
- Sialomucin content [2]: 24.9 ± 3.1 µg/µL
- Inhibition rate (cholera toxin): 37.9 ± 2.9%

Molecule: COc1ccc2c(c1)c(CC(=O)O)c(C)n2C(=O)c1ccc(Cl)cc1 [Indomethacin]
- Inhibition rate [1]: 37.5%
